These results are taken from patent publication US20240228506A1, “RIPK1 INHIBITORS AND METHODS OF USE” (Merck Sharp & Dohme LLC, priority 2021, published 2024).

The IC50 is the concentration at which inhibition is half-maximal.

SMILES strings stand for the structures.

This assay concerns the target T1, GST-RIPK1 (recombinant GST-RIPK1 kinase domain (residues 1-327)) (Homo sapiens, UniProt Q13546).
T1 construct: recombinant GST-RIPK1 kinase domain (residues 1-327) enzyme; made in house; host or cells: baculovirus-transfected Sf21 insect cells
T1 sequence (Q13546 1-327): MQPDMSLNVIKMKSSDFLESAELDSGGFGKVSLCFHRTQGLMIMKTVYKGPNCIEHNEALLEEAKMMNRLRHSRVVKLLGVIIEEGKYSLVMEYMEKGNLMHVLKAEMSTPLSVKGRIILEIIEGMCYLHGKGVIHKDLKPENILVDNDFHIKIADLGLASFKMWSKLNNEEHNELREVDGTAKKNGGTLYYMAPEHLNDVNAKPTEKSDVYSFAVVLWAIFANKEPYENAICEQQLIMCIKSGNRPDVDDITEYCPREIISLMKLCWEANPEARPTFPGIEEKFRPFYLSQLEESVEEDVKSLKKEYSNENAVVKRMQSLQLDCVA
In words: RIPK1-ADP-Glo enzymatic assay. Type of assay: biochemical. The following applies: 25 nM GST-RIPK1, 300 μM ATP, 3 μM dephosphorylated-MBP; 30 minutes pre-incubation, 150 minutes reaction; ten-point titration. In short, it runs like this: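 Ten-point 1:3 titrations from 100000 nM, 1% DMSO, were preincubated 30 min with 25 nM GST-RIPK1 (1-327) before starting with 300 μM ATP plus 3 μM dephosphorylated MBP; 150 min reaction. ADP-Glo luminescence measured ATP-to-ADP conversion; EC50 by four-parameter sigmoidal regression.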
In general terms: In ADP-Glo the light output rises with the ADP produced.
Consider `Cc1cccc(C#Cc2cncc3c2O[C@H]2C[C@@H]3N(C(=O)C34CCC(F)(CC3)C4)C2)c1` [Compound 2-104, (4-fluorobicyclo[2.2.1]heptan-1-yl)((2S,5S)-9-(m-tolylethynyl)-2,3-dihydro-2,5-methanopyrido[3,4-f][1,4]oxazepin-4(5H)-yl)methanone], for which the IC50 was found to be 23 nM.

For `CCC(F)(F)C(C)(C)C(=O)N1C[C@@H]2C[C@H]1c1cncc(C#N)c1O2` [Compound 1-43, (2S,5S)-4-(3,3-difluoro-2,2-dimethylpentanoyl)-2,3,4,5-tetrahydro-2,5-methanopyrido[3,4-f][1,4]oxazepine-9-carbonitrile], the IC50 was determined as 491 nM.

Consider `CC(C)(C(=O)N1C[C@@H]2C[C@H]1c1cncc(C#Cc3ccc4nccnc4c3)c1O2)C(F)F` [Compound 2-34, 3,3-Difluoro-2,2-dimethyl-1-((2S,5S)-9-(quinoxalin-6-ylethynyl)-2,3-dihydro-2,5-methanopyrido[3,4-f][1,4]oxazepin-4(5H)-yl)propan-1-one], for which the IC50 came to 15 nM.

On to `CN(C)C(C)(C)C(=O)N1C[C@@H]2C[C@H]1c1cncc(C#N)c1O2` [Compound 1-90, (2S,5S)-4-(2-(dimethylamino)-2-methylpropanoyl)-2,3,4,5-tetrahydro-2,5-methanopyrido[3,4-f][1,4]oxazepine-9-carbonitrile], for which the IC50 came to 85 nM.

Take `N#Cc1cncc2c1O[C@H]1C[C@@H]2N(C(=O)C23CSC(C2)C3)C1` [Compound 1-47, (2S,5S)-4-(2-thiabicyclo[2.1.1]hexane-4-carbonyl)-2,3,4,5-tetrahydro-2,5-methanopyrido[3,4-f][1,4]oxazepine-9-carbonitrile]: the IC50 is 22 nM.

Consider `N#Cc1cncc2c1O[C@H]1C[C@@H]2N(C(=O)C2(F)CCN(c3nccn4ncnc34)CC2)C1` [Compound 1-58, (2S,5S)-4-(1-([1,2,4]triazolo[1,5-a]pyrazin-8-yl)-4-fluoropiperidine-4-carbonyl)-2,3,4,5-tetrahydro-2,5-methanopyrido[3,4-f][1,4]oxazepine-9-carbonitrile], for which the IC50 was found to be 74 nM.

As for `O=C(N1C[C@@H]2C[C@H]1c1cncc(C#CC3CC3)c1O2)C12CCC(F)(CC1)C2` [Compound 2-115, ((2S,5S)-9-(Cyclopropylethynyl)-2,3-dihydro-2,5-methanopyrido[3,4-f][1,4]oxazepin-4(5H)-yl)(4-fluorobicyclo[2.2.1]heptan-1-yl)methanone], the IC50 was 32 nM.

Take `N#Cc1cncc2c1O[C@H]1C[C@@H]2N(C(=O)C23CC(F)(C2)C3)C1` [Compound 1-92, (2S,5S)-4-(3-fluorobicyclo[1.1.1]pentane-1-carbonyl)-2,3,4,5-tetrahydro-2,5-methanopyrido[3,4-f][1,4]oxazepine-9-carbonitrile]: the IC50 was 84 nM.

In the case of `CCCC12CC(C(=O)N3C[C@@H]4C[C@H]3c3cncc(C#N)c3O4)(C1)C2` [Compound 1-105, (2S,5S)-4-(3-propylbicyclo[1.1.1]pentane-1-carbonyl)-2,3,4,5-tetrahydro-2,5-methanopyrido[3,4-f][1,4]oxazepine-9-carbonitrile], the IC50 amounted to 92 nM.

As for `N#Cc1ccnc(N2CCC(F)(C(=O)N3C[C@@H]4C[C@H]3c3cncc(C#N)c3O4)CC2)n1` [Compound 1-83, (2S,5S)-4-(1-(4-cyanopyrimidin-2-yl)-4-fluoropiperidine-4-carbonyl)-2,3,4,5-tetrahydro-2,5-methanopyrido[3,4-f][1,4]oxazepine-9-carbonitrile], the IC50 amounted to 30 nM.

Take `CC(C)(C(=O)N1C[C@@H]2C[C@H]1c1cncc(C#Cc3cncc(C#N)c3)c1O2)C(F)F` [Compound 2-85, 5-(((2S,5S)-4-(3,3-difluoro-2,2-dimethylpropanoyl)-2,3,4,5-tetrahydro-2,5-methanopyrido[3,4-f][1,4]oxazepin-9-yl)ethynyl)nicotinonitrile]: the IC50 stood at 38 nM.

In the case of `CC(C)(C(=O)N1C[C@@H]2C[C@H]1c1cncc(C#CCn3nnc4ccccc43)c1O2)C(F)F` [Compound 2-40, 1-((2S,5S)-9-(3-(1H-benzo[d][1,2,3]triazol-1-yl)prop-1-yn-1-yl)-2,3-dihydro-2,5-methanopyrido[3,4-f][1,4]oxazepin-4(5H)-yl)-3,3-difluoro-2,2-dimethylpropan-1-one], the IC50 is 140 nM.

Turning to `Cc1cncc2c1O[C@H]1C[C@@H]2N(C(=O)C(C)(C)C)C1` [Compound 2-13, 2,2-dimethyl-1-((2S,5S)-9-methyl-2,3-dihydro-2,5-methanopyrido[3,4-f][1,4]oxazepin-4(5H)-yl)propan-1-one], the IC50 turned out to be 1100 nM.

In the case of `CCC(C)(C(=O)N1C[C@@H]2C[C@H]1c1cncc(C#N)c1O2)C(F)F` (single isomer, unassigned) [Compound 1-85, (2S,5S)-4-(2-(R or S)-(difluoromethyl)-2-methylbutanoyl)-2,3,4,5-tetrahydro-2,5-methanopyrido[3,4-f][1,4]oxazepine-9-carbonitrile], the IC50 came to 19 nM.

As to `CC(C)(C(=O)N1C[C@@H]2C[C@H]1c1cncc(C#Cc3ccc(C4CC4)nc3)c1O2)C(F)F` [Compound 2-83, 1-((2S,5S)-9-((6-cyclopropylpyridin-3-yl)ethynyl)-2,3-dihydro-2,5-methanopyrido[3,4-f][1,4]oxazepin-4(5H)-yl)-3,3-difluoro-2,2-dimethylpropan-1-one], the IC50 turned out to be 24 nM.

Regarding `CC(F)(F)C(C)(C)C(=O)N1C[C@@H]2C[C@H]1c1cncc(C#N)c1O2` [Compound 1-10, (2S,5S)-4-(3,3-difluoro-2,2-dimethylbutanoyl)-2,3,4,5-tetrahydro-2,5-methanopyrido[3,4-f][1,4]oxazepine-9-carbonitrile], the IC50 came out at 21 nM.

On to `O=C(N1C[C@@H]2C[C@H]1c1cncc(F)c1O2)C12CCC(F)(CC1)C2` [Compound 2-7, (4-fluorobicyclo[2.2.1]heptan-1-yl)[(2S,5S)-9-fluoro-2,3-dihydro-2,5-methanopyrido[3,4-f][1,4]oxazepin-4(5H)-yl]methanone], for which the IC50 was found to be 26 nM.

In the case of `CC(C)(C(=O)N1C[C@@H]2C[C@H]1c1cncc(C#N)c1O2)C1CCC1` [Compound 1-25, (2S,5S)-4-(2-cyclobutyl-2-methylpropanoyl)-2,3,4,5-tetrahydro-2,5-methanopyrido[3,4-f][1,4]oxazepine-9-carbonitrile], the IC50 came out at 119 nM.

As to `CC1(C(=O)N2C[C@@H]3C[C@H]2c2cncc(C#N)c2O3)CCC(F)(F)CC1` [Compound 1-36, (2S,5S)-4-(4,4-difluoro-1-methylcyclohexane-1-carbonyl)-2,3,4,5-tetrahydro-2,5-methanopyrido[3,4-f][1,4]oxazepine-9-carbonitrile], the IC50 worked out at 973 nM.

Consider `N#Cc1cncc2c1O[C@H]1C[C@@H]2N(C(=O)C23CCC(C(F)(F)F)(CC2)C3)C1` [Compound 1-2, (2S,5S)-4-[4-(trifluoromethyl)bicyclo[2.2.1]heptane-1-carbonyl]-2,3,4,5-tetrahydro-2,5-methanopyrido[3,4-f][1,4]oxazepine-9-carbonitrile], for which the IC50 stood at 7 nM.

On to `CC(F)(F)C(C)(C)C(=O)N1C[C@@H]2C[C@H]1c1cncc(Cl)c1O2` [Compound 2-5, 1-[(2S,5S)-9-chloro-2,3-dihydro-2,5-methanopyrido[3,4-f][1,4]oxazepin-4(5H)-yl]-3,3-difluoro-2,2-dimethylbutan-1-one], for which the IC50 was 18 nM.

Consider `O=C(N1C[C@@H]2C[C@H]1c1cncc(C#Cc3cccnc3)c1O2)C12CCC(C(F)(F)F)(CC1)C2` [Compound 2-58, ((2S,5S)-9-(pyridin-3-ylethynyl)-2,3-dihydro-2,5-methanopyrido[3,4-f][1,4]oxazepin-4(5H)-yl)(4-(trifluoromethyl)bicyclo [2.2.1]heptan-1-yl)methanone], for which the IC50 was 12 nM.

Regarding `CC(C)Oc1ncc(C#Cc2cncc3c2O[C@H]2C[C@@H]3N(C(=O)C(C)(C)C(F)F)C2)cn1` [Compound 2-74, 3,3-difluoro-1-((2S,5S)-9-((2-isopropoxypyrimidin-5-yl)ethynyl)-2,3-dihydro-2,5-methanopyrido[3,4-f][1,4]oxazepin-4(5H)-yl)-2,2-dimethylpropan-1-one], the IC50 came to 18 nM.

Take `CCC12CC(C(=O)N3C[C@@H]4C[C@H]3c3cncc(C#N)c3O4)(C1)C2` [Compound 1-98, (2S,5S)-4-(3-ethylbicyclo[1.1.1]pentane-1-carbonyl)-2,3,4,5-tetrahydro-2,5-methanopyrido[3,4-f][1,4]oxazepine-9-carbonitrile]: the IC50 is 57 nM.

As to `Cc1ccc(C#Cc2cncc3c2O[C@H]2C[C@@H]3N(C(=O)C34CCC(C(F)(F)F)(CC3)C4)C2)cn1` [Compound 2-62], the IC50 worked out at 17 nM.

Turning to `N#Cc1cncc2c1S[C@H]1C[C@@H]2N(C(=O)C2(C#N)CCC2)C1` [Compound 4-6, (2S,5S)-4-(1-cyanocyclobutane-1-carbonyl)-2,3,4,5-tetrahydro-2,5-methanopyrido[3,4-f][1,4]thiazepine-9-carbonitrile], the IC50 was 49 nM.

As to `N#Cc1cncc2c1O[C@H]1C[C@@H]2N(C(=O)C23CCC(CC2)CC3)C1` [Compound 1-61, (2S,5S)-4-(bicyclo[2.2.2]octane-1-carbonyl)-2,3,4,5-tetrahydro-2,5-methanopyrido[3,4-f][1,4]oxazepine-9-carbonitrile], the IC50 was found to be 34 nM.
